From ChEMBL document CHEMBL3997786, “Development of Dihydroxyphenyl Sulfonylisoindoline Derivatives as Liver-Targeting Pyruvate Dehydrogenase Kinase Inhibitors” (J Med Chem, 2017)

Legend:
[1] = biological target: T1, [Pyruvate dehydrogenase (acetyl-transferring)] kinase isozyme 2, mitochondrial (Homo sapiens, UniProt Q15119); test: Inhibition of N-terminal His6-SUMO tagged recombinant human PDK2 using [32P]-gamma-ATP assessed as decrease in incorporation of radioactivity into E1 protein incubated for 2 mins
[2] = biological target: T1, [Pyruvate dehydrogenase (acetyl-transferring)] kinase isozyme 2, mitochondrial; test: Binding affinity to N-terminal His6-SUMO tagged recombinant human PDK2 by isothermal titration calorimetry
Plasma [3] = test: Terminal half life in CD1 mouse plasma at 70 mg/kg, ip by LC-MS/MS analysis; format: ADME, organism-based; details: in vivo
Plasma [4] = test: Cmax in CD1 mouse plasma at 70 mg/kg, ip by LC-MS/MS analysis; format: ADME, organism-based; design: dose 70 mg/kg, route intraperitoneal; details: in vivo
Plasma [5] = test: Tmax in CD1 mouse plasma at 70 mg/kg, ip by LC-MS/MS analysis; format: ADME, organism-based; details: in vivo
Plasma [6] = test: AUClast in CD1 mouse plasma at 70 mg/kg, ip by LC-MS/MS analysis; format: ADME, organism-based; design: dose 70 mg/kg, route intraperitoneal, time 0 - last; details: in vivo
Plasma [7] = test: Apparent volume of distribution during terminal phase in CD1 mouse plasma at 70 mg/kg, ip by LC-MS/MS analysis; format: ADME, organism-based; details: in vivo
[8] = Apparent clearance in CD1 mouse plasma at 70 mg/kg, ip by LC-MS/MS analysis; format: ADME, organism-based
Liver [9] = test: Terminal half life in CD1 mouse liver at 70 mg/kg, ip by LC-MS/MS analysis; format: ADME, organism-based; details: in vivo
Liver [10] = test: Cmax in CD1 mouse liver at 70 mg/kg, ip by LC-MS/MS analysis; format: ADME, organism-based; design: dose 70 mg/kg, route intraperitoneal; details: in vivo
Liver [11] = test: Tmax in CD1 mouse liver at 70 mg/kg, ip by LC-MS/MS analysis; format: ADME, organism-based; details: in vivo
Liver [12] = test: AUClast in CD1 mouse liver at 70 mg/kg, ip by LC-MS/MS analysis; format: ADME, organism-based; details: in vivo
Liver [13] = test: Apparent volume of distribution during terminal phase in CD1 mouse liver at 70 mg/kg, ip by LC-MS/MS analysis; format: ADME, organism-based; details: in vivo
Liver [14] = test: Apparent clearance in CD1 mouse liver at 70 mg/kg, ip by LC-MS/MS analysis; format: ADME, organism-based; details: in vivo
[15] = Terminal half life in CD1 mouse muscle at 70 mg/kg, ip by LC-MS/MS analysis; format: ADME, organism-based, Muscle tissue; details: read-out: beta t1/2
[16] = Cmax in CD1 mouse muscle at 70 mg/kg, ip by LC-MS/MS analysis; format: ADME, organism-based, Muscle tissue; design: dose 70 mg/kg, route intraperitoneal
[17] = Tmax in CD1 mouse muscle at 70 mg/kg, ip by LC-MS/MS analysis; format: ADME, organism-based, Muscle tissue
[18] = AUClast in CD1 mouse muscle at 70 mg/kg, ip by LC-MS/MS analysis; format: ADME, organism-based, Muscle tissue; details: in vivo
[19] = Apparent volume of distribution during terminal phase in CD1 mouse muscle at 70 mg/kg, ip by LC-MS/MS analysis; format: ADME, organism-based, Muscle tissue; details: in vivo
[20] = Apparent clearance in CD1 mouse muscle at 70 mg/kg, ip by LC-MS/MS analysis; format: ADME, organism-based, Muscle tissue; details: in vivo

`O=C(O)CC(=O)N1CCC(Nc2ccc3c(c2)CN(S(=O)(=O)c2ccc(O)cc2O)C3)CC1` gave an IC50 [1] of 1660 nM.

Molecule `O=S(=O)(c1ccc(O)cc1O)N1Cc2ccc(O)cc2C1` has an IC50 [1] of 570 nM.

In the case of `O=S(=O)(c1ccc(O)cc1O)N1Cc2ccc(NC3CCN(CC(O)CO)CC3)cc2C1` (configuration not stated), the IC50 [1] is reported as 154 nM.

`NC(=O)C[C@H](N)C(=O)N1CCCN(c2ccc3c(c2)CN(S(=O)(=O)c2ccc(O)cc2O)C3)CC1` showed an IC50 [1] of 1510 nM.

With `O=C(O)CCCCCCCC(=O)N1CCC(Nc2ccc3c(c2)CN(S(=O)(=O)c2ccc(O)cc2O)C3)CC1` the IC50 [1] was 629 nM.

Molecule `O=S(=O)(c1ccc(O)cc1O)N1Cc2ccc(NC3CCCCC3)cc2C1` has an IC50 [1] of 1200 nM.

`NCCCC[C@H](N)C(=O)N1CCC(Nc2ccc3c(c2)CN(S(=O)(=O)c2ccc(O)cc2O)C3)CC1` gave an IC50 [1] of 580 nM.

`NC(=O)C[C@H](N)C(=O)NCCCNc1ccc2c(c1)CN(S(=O)(=O)c1ccc(O)cc1O)C2` showed an IC50 [1] of 67 nM.

Work on `NC(=O)C[C@H](N)C(=O)N1CC(Nc2ccc3c(c2)CN(S(=O)(=O)c2ccc(O)cc2O)C3)C1` yielded an IC50 [1] of 65 nM.

`C[C@H](O)[C@H](N)C(=O)N1CCC(Nc2ccc3c(c2)CN(S(=O)(=O)c2ccc(O)cc2O)C3)CC1` gave an IC50 [1] of 91 nM.

With `O=S(=O)(c1ccc(O)cc1O)N1Cc2ccc(NC3CCN(Cc4ccccc4)CC3)cc2C1` the IC50 [1] was 416 nM.

With `O=S(=O)(c1ccc(O)cc1O)N1Cc2ccc(N3CCNCC3)cc2C1` the IC50 [1] was 1350 nM.

In the case of `O=S(=O)(c1ccc(O)cc1O)N1Cc2cc(O)cc(O)c2C1`, the IC50 [1] is reported as 456 nM, the Kd [2] is reported as 156 nM and the “beta t1/2” value (Plasma [3]) is reported as 5.65 h. For the same molecule, the Cmax (Plasma [4]) was 29000 ng/mL, the Tmax (Plasma [5]) was 0.167 h and the AUClast (Plasma [6]) was 1494106 ng·min/mL. The Vz/F (Plasma [7]) was 679 mL, the CL/F [8] was 1.39 mL/min and the “beta t1/2” value (Liver [9]) was 1.67 h. For the same molecule, the Cmax (Liver [10]) was 5707 ng/g, the Tmax (Liver [11]) was 0.167 h and the AUClast (Liver [12]) was 245088 ng·min/g. It also gave a Vz/F (Liver [13]) of 1174 g, a CL/F (Liver [14]) of 8.13 g/min and a half-life [15] of 8.57 h. For the same molecule, the Cmax [16] was 17400 ng/g, the Tmax [17] was 0.5 h and the AUClast [18] was 885986 ng·min/g. The Vz/F [19] was 1720 g and the CL/F [20] was 2.32 g/min.
